Earlier results on three molecules are cited in US4988517A, “Method and composition for inhibiting colon carcinogenesis” (American Health Foundation, priority 1988, dated 1991).

For series [1] the following is noted: 6 ppm selenium in the form of selenomethionine; cited from earlier work.
The conditions of series [2]: rat, in vivo; cited from earlier work.
In another series the test system is colon carcinogenesis. Particulars: initiation phase; cited from earlier work.
Series [3] has as its system cancer induced by a variety of chemical carcinogens. To be noted: diet or drinking water; colon, mammary gland, pancreas; cited from earlier work.
Series [4] has as its system benzo(a) pyrene-induced forestomach tumors. Particulars: mice; cited from earlier work.
For series [5], the system named is azoxymethane ("AOM")-induced colon, kidney, and hepatocarcinogenesis. Particulars: 50 ppm in semipurified high fat diet, 2 wk before, during, 1 wk after carcinogen, liver; cited from earlier work.

With `C[Se]CC[C@H](N)C(=O)O` [selenomethionine], the Liver damage entry in series [1] is “caused liver damage as indicated by extensive necrosis and fibrosis”.

As to `O=[Se](O)O` [sodium selenite], in series [2], the “Toxicity relative to BSC” value was “more toxic than BSC”. Moreover, in the series with colon carcinogenesis, the “Inhibition of colon carcinogenesis” value is given as “does not inhibit colon carcinogenesis during the initiation phase”. Besides, the “Protection against cancer induction” value in series [3] is “protects against cancer induced by a variety of chemical carcinogens”.

Regarding `COc1ccc([SeH])cc1` [MBS, p-methoxybenzenenselenol, reference compound], in series [4], the “Inhibition of benzo(a)pyrene-induced forestomach tumors” value is “effective inhibitors of benzo(a) pyrene-induced forestomach tumors in mice”. Moreover, the “Inhibition of AOM-induced carcinogenesis” value in series [5] was “inhibited azoxymethane ("AOM")-induced colon, kidney, and hepatocarcinogenesis in rats”.
